Results taken from PubChem BioAssay (NCI).
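Step 1: Grow cells in 96-well plates. Step 2: Expose to compound for 48 hours at 5 concentrations. Step 3: Interpolate endpoints linearly; if unreached, use highest concentration. The concentration for 50% growth inhibition is given as GI50. At the TGI there is no net growth.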

Tests used:
Test in all cases: NCI tumour cell line growth inhibition, 48 h; in the data active means GI50 below about 0.43 µM; inactive means the rest
[1] = tested on: MCF7 breast
[2] = tested on: K-562 leukemia
[3] = tested on: 786-0 renal
[4] = tested on: HT29 colon
[5] = tested on: RXF 393 renal
[6] = tested on: NCI-H460 lung
[7] = tested on: HCT-116 colon
[8] = tested on: COLO 205 colon
[9] = tested on: SF-539 CNS
[10] = tested on: HCT-15 colon
[11] = tested on: NCI-H226 lung
[12] = tested on: HL-60(TB) leukemia
[13] = tested on: NCI-H522 lung
[14] = tested on: CCRF-CEM leukemia
[15] = tested on: IGROV1 ovarian
[16] = tested on: EKVX NSCLC
[17] = tested on: SF-295 CNS
[18] = tested on: SK-MEL-28 melanoma
[19] = tested on: NCI-H23 lung
[20] = tested on: OVCAR-8 ovarian
[21] = tested on: OVCAR-3 ovarian
[22] = tested on: A498 renal
[23] = tested on: SK-MEL-5 melanoma
[24] = tested on: A549 NSCLC
[25] = tested on: CAKI-1 renal
[26] = tested on: MDA-MB-231 breast
[27] = tested on: SR leukemia
[28] = tested on: SK-OV-3 ovarian
[29] = tested on: OVCAR-4 ovarian
[30] = tested on: HCC-2998 colon
[31] = tested on: SF-268 CNS
[32] = tested on: HOP-62 NSCLC
[33] = tested on: M14 melanoma
[34] = tested on: MOLT-4 leukemia
[35] = tested on: PC-3 prostate
[36] = tested on: SK-MEL-2 melanoma
[37] = tested on: KM12 colon
[38] = tested on: UACC-62 melanoma
[39] = tested on: TK-10 renal
[40] = tested on: SNB-75 CNS
[41] = tested on: HOP-92 NSCLC
[42] = tested on: U251 CNS
[43] = tested on: LOX IMVI melanoma
[44] = tested on: MALME-3M melanoma
[45] = tested on: T-47D breast
[46] = tested on: RPMI-8226 leukemia
[47] = tested on: UACC-257 melanoma
[48] = tested on: NCI/ADR-RES ovarian
[49] = tested on: SN12C renal
[50] = tested on: UO-31 renal
[51] = tested on: OVCAR-5 ovarian
[52] = tested on: HS 578T breast
[53] = tested on: BT-549 breast
[54] = tested on: DU-145 prostate
[55] = tested on: SW-620 colon
[56] = tested on: SNB-19 CNS
[57] = tested on: ACHN renal

O=C(N/N=C/c1ccc[nH]1)c1[nH]c2ccc(Br)cc2c1-c1ccccc1
7250 nM: TGI [45]
12100 nM: TGI [29]
13400 nM: TGI [34]
9840 nM: TGI [31]
1320 nM: TGI [8]
4810 nM: TGI [30]
10700 nM: TGI [33] | TGI [46] | TGI [51]
4310 nM: TGI [4]
6880 nM: TGI [24]
13600 nM: TGI [55]
13700 nM: TGI [47]
2190 nM: TGI [48]
2780 nM: TGI [11]
7370 nM: TGI [3]
9770 nM: TGI [41]
8930 nM: TGI [32]
619 nM: TGI [12]
active: GI50 [1] 178 nM | GI50 [2] 253 nM | GI50 [4] 324 nM | GI50 [5] 339 nM | GI50 [6] 338 nM | GI50 [7] 318 nM | GI50 [8] 298 nM | GI50 [9] 219 nM | GI50 [10] 297 nM | GI50 [11] 398 nM | GI50 [12] 235 nM | GI50 [13] 92.7 nM | GI50 [14] 385 nM | GI50 [17] 243 nM | GI50 [20] 361 nM | GI50 [23] 344 nM | GI50 [24] 345 nM | GI50 [25] 362 nM | GI50 [27] 273 nM | GI50 [30] 408 nM | GI50 [33] 322 nM | GI50 [36] 379 nM | GI50 [38] 191 nM | GI50 [40] 187 nM | GI50 [42] 349 nM | GI50 [43] 310 nM | GI50 [44] 410 nM | GI50 [45] 319 nM | GI50 [46] 400 nM | GI50 [48] 316 nM | GI50 [49] 410 nM | GI50 [52] 380 nM | GI50 [53] 416 nM | GI50 [55] 378 nM | GI50 [56] 423 nM
11000 nM: TGI [7]
13900 nM: TGI [36] | TGI [39]
9890 nM: TGI [28]
9860 nM: TGI [25]
4100 nM: TGI [15]
1600 nM: TGI [23]
inactive: GI50 [3] 669 nM | GI50 [15] 460 nM | GI50 [16] 881 nM | GI50 [18] 653 nM | GI50 [19] 456 nM | GI50 [21] 477 nM | GI50 [22] 6360 nM | GI50 [26] 572 nM | GI50 [28] 614 nM | GI50 [29] 954 nM | GI50 [31] 1570 nM | GI50 [32] 526 nM | GI50 [34] 437 nM | GI50 [35] 441 nM | GI50 [37] 477 nM | GI50 [39] 1710 nM | GI50 [41] 1770 nM | GI50 [47] 688 nM | GI50 [50] 489 nM | GI50 [51] 489 nM | GI50 [54] 489 nM | GI50 [57] 516 nM
16100 nM: TGI [18]
3420 nM: TGI [20]
11500 nM: TGI [44] | TGI [56]
2410 nM: TGI [1]
19700 nM: TGI [52]
2420 nM: TGI [53]
11300 nM: TGI [19]
5740 nM: TGI [50]
11800 nM: TGI [14]
1230 nM: TGI [6]
3830 nM: TGI [40]
4570 nM: TGI [42]
590 nM: TGI [9]
1020 nM: TGI [17]
515 nM: TGI [13]
9160 nM: TGI [16]
12400 nM: TGI [21] | TGI [54]
3910 nM: TGI [49]
29800 nM: TGI [2]
4970 nM: TGI [43]
1760 nM: TGI [38]
10900 nM: TGI [10]
10300 nM: TGI [5]
5880 nM: TGI [57]
8150 nM: TGI [35]
21900 nM: TGI [22]
6080 nM: TGI [37]
6090 nM: TGI [26]

COc1ccc([C@H]2[C@H](O)C(=O)N2c2cc(OC)c(OC)c(OC)c2)cc1O
> 100000 nM: TGI [1] | TGI [2] | TGI [3] | TGI [5] | TGI [6] | TGI [7] | TGI [10] | TGI [14] | TGI [15] | TGI [16] | TGI [17] | TGI [18] | TGI [19] | TGI [22] | TGI [24] | TGI [25] | TGI [26] | TGI [27] | TGI [28] | TGI [29] | TGI [30] | TGI [31] | TGI [32] | TGI [33] | TGI [34] | TGI [35] | TGI [36] | TGI [37] | TGI [38] | TGI [39] | TGI [40] | TGI [41] | TGI [42] | TGI [43] | TGI [44] | TGI [45] | TGI [46] | TGI [47] | TGI [48] | TGI [49] | TGI [50] | TGI [51] | TGI [52] | TGI [54] | TGI [55] | TGI [56] | TGI [57]
active: GI50 [1] < 10 nM | GI50 [2] < 15.8 nM | GI50 [3] < 20.8 nM | GI50 [4] 202 nM | GI50 [5] 60.2 nM | GI50 [6] < 18.3 nM | GI50 [7] < 10 nM | GI50 [8] 238 nM | GI50 [9] < 10 nM | GI50 [10] 22.7 nM | GI50 [11] < 10 nM | GI50 [12] < 13.6 nM | GI50 [13] < 10 nM | GI50 [14] < 16.7 nM | GI50 [15] < 20.6 nM | GI50 [17] 33.7 nM | GI50 [18] 55.1 nM | GI50 [19] 37.9 nM | GI50 [20] < 16.3 nM | GI50 [21] < 18 nM | GI50 [23] < 15.5 nM | GI50 [24] 32.1 nM | GI50 [25] < 15.3 nM | GI50 [26] < 17.8 nM | GI50 [27] < 12.4 nM | GI50 [28] 33.2 nM | GI50 [30] 39.1 nM | GI50 [31] 30.6 nM | GI50 [32] < 22.4 nM | GI50 [33] < 16.3 nM | GI50 [34] < 19.2 nM | GI50 [35] < 19 nM | GI50 [36] 40 nM | GI50 [37] < 15.3 nM | GI50 [38] < 23.2 nM | GI50 [40] 28.2 nM | GI50 [41] 43.8 nM | GI50 [42] 21.7 nM | GI50 [43] < 10 nM | GI50 [44] < 28.4 nM | GI50 [46] < 21.4 nM | GI50 [48] 33.3 nM | GI50 [49] < 16.9 nM | GI50 [50] 50.3 nM | GI50 [51] 37.7 nM | GI50 [52] 20 nM | GI50 [53] < 15.1 nM | GI50 [54] < 19.6 nM | GI50 [55] < 18.2 nM | GI50 [56] 48.5 nM | GI50 [57] < 18.1 nM
211 nM: TGI [53]
2270 nM: TGI [11]
43.6 nM: TGI [9]
1210 nM: TGI [8]
< 14 nM: TGI [13]
inactive: GI50 [22] > 100000 nM | GI50 [29] 4780 nM | GI50 [39] > 100000 nM | GI50 [45] > 100000 nM
1760 nM: TGI [4]
59.4 nM: TGI [23]
